Results published in US9926304B2, “1-(arylmethyl)quinazoline-2,4(1H,3H)-diones as PARP inhibitors and the use thereof” (Impact Therapeutics, Inc., priority 2011, dated 2018).
Like-named read-outs stand apart in the source and are kept apart here.

Columns and labels:
[1] = tested on: Human breast cancer cell line T47D; assay: Cell based caspase-3 activity assay: potentiation of MMS induced apoptosis; settings: T47D cells, 11.1 μg/ml MMS, 24 hours, intracellular caspase-3 activity, read-out: EC50 (nM), potentiation of the apoptosis inducing activity of MMS
How it was run: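 T47D cells were exposed for 24 h to compound plus a minimally apoptotic MMS dose (medium containing 11.1 μg/ml MMS). Lysates were incubated 3 h at 37 °C with (Ac-DEVD)2-R110 caspase-3 substrate (20 μM in added buffer) and read at ex 496/em 520 nm. EC50 came from a sigmoidal fit of RFU versus log concentration.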

[2] = tested on: SW620 human colorectal cancer cells; assay: MTT based cell viability assay: potentiation of the growth inhibiting activity of MMS
Protocol: Briefly, SW620 human colorectal cancer cells were used to measure the cell growth inhibiting activity of DNA alkylating anticancer drug MMS. […] SW620 cells were grown and maintained in RPMI1640 (Gibco) medium supplemented with 10% FBS (Hyclone). In the first day of experiment, 4000 cells were seeded to each well of a 96-well cell culture plate and incubated at 37° C. and 5% CO2 in a cell culture incubator overnight. In the next day, the cell culture medium was removed. […] The serial dilutions of the reference compounds and the compounds to be tested were made with a 1:3 and 1:10 fashion in DMSO. The 10-fold concentrated solutions of these compounds were made by mixing 10 μl of the serial dilutions in DMSO with 90 μl fresh medium. The final concentration of DMSO in the medium was 1%. The cells were incubated at 37° C. in 5% CO2 cell culture incubator for additional 5 days (120 hours). Afterwards, the 96-well cell culture plate was taken out and 20 μl of MTT solution was added to each well and incubated at 37° C. for 4 h. The medium was removed and 100 μl DMSO was added to each well. The 96-well cell culture plates were shaked adequately for 10 min and read in a Varioskan Flash plate reader (Thermo Fisher Scientific) at 520 and 690 nm. The data were analyzed by Prism 5 software (GraphPad). The obtained 520 nm absorbance readings subtracting corresponding 690 nm reading were analyzed and plotted against the Log scale of the compound concentrations.

[3] = Homo sapiens, SW-620, 120 h, read-out: IC50 (nM), potentiation of the growth inhibiting activity of MMS, SW620 cells, 1.7 μg/ml MMS, 5 days (120 hours), MTT
[4] = read-out: IC50 (nM), potentiation of the growth inhibiting activity of MMS, SW620 cells, 1.7 μg/ml MMS, 5 days (120 hours), MTT

Molecule	EC50 ([1]; Homo sapiens, T47D, 24 h)	IC50 [2, 3]	EC50 [1]	IC50 [2, 4]
Cc1ccc2c(c1)c(=O)[nH]c(=O)n2Cc1cccc(C(=O)N2CCN(C(=O)C3CCCC3)CC2)c1 [Example 82, 1-(3-(4-(Cyclopentylcarbonyl)piperazine-1-carbonyl)benzyl)-6-methylquinazoline-2,4(1H,3H)-dione]	154 nM	459 nM		
O=C(c1cccc(Cn2c(=O)[nH]c(=O)c3ccccc32)c1)N1CCN(CC2CCCC2)CC1 [Example 74, 1-(3-(4-(Cyclopentylmethyl)piperazine-1-carbonyl)benzyl)quinazoline-2,4(1H,3H)-dione]	2110 nM	> 10000 nM		
O=C(c1ccoc1)N1CCN(C(=O)c2cccc(Cn3c(=O)[nH]c(=O)c4ccccc43)c2)CC1 [Example 34, 1-(3-(4-(Furan-3-carbonyl)piperazine-1-carbonyl)benzyl)quinazoline-2,4(1H,3H)-dione]	104 nM	294 nM		
Cc1cccc2c1c(=O)[nH]c(=O)n2Cc1cccc(C(=O)N2CCN(c3ncccn3)CC2)c1 [Example 159, 5-Methyl-1-(3-(4-(pyrimidin-2-yl)piperazine-1-carbonyl)benzyl)quinazoline-2,4(1H,3H)-dione]	220 nM	648 nM		
O=C(c1cccc(Cn2c(=O)[nH]c(=O)c3ccccc32)c1)N1CCC(Oc2ccccc2)CC1 [Example 39, 1-(3-(4-Phenoxypiperidine-1-carbonyl)benzyl)quinazoline-2,4(1H,3H)-dione]	614 nM	604 nM		
COc1ccc2c(=O)[nH]c(=O)n(Cc3cccc(C(=O)N4CCN(c5ncccn5)CC4)c3)c2c1 [Example 209, 7-Methoxy-1-(3-(4-(pyrimidin-2-yl)piperazine-1-carbonyl)benzyl)quinazoline-2,4(1H,3H)-dione]	294 nM	103 nM		
Cc1ccc2c(=O)[nH]c(=O)n(Cc3cccc(C(=O)N4CCN(C(=O)C5CCCC5)CC4)c3)c2c1 [Example 79, 1-(3-(4-(Cyclopentylcarbonyl)piperazine-1-carbonyl)benzyl)-7-methylquinazoline-2,4(1H,31H)-dione]			3220 nM	5540 nM
O=c1[nH]c(=O)n(Cc2cccc(CN3CCN(c4ccccn4)CC3)c2)c2ccccc12 [Example 195, 1-(3-((4-(Pyridin-2-yl)piperazin-1-yl)methyl)benzyl)quinazoline-2,4(1H,3H)-dione]	471 nM	1440 nM		
COc1ccc2c(c1)c(=O)[nH]c(=O)n2Cc1cccc(C(=O)N2CCN(c3ncccn3)CC2)c1 [Example 204, 6-Methoxy-1-(3-(4-(pyrimidin-2-yl)piperazine-1-carbonyl)benzyl)quinazoline-2,4(1H,3H)-dione]	> 10000 nM	> 10000 nM		
O=C(c1ccc(Cl)c(Cn2c(=O)[nH]c(=O)c3cc(F)ccc32)c1)N1CCN(c2ncccn2)CC1 [Example 187, 1-(6-Chloro-3-(4-(pyrimidin-2-yl)piperazine-1-carbonyl)benzyl)-6-fluoroquinazoline-2,4(1H,3H)-dione]	30 nM	27 nM		
O=C(c1cccc(Cn2c(=O)[nH]c(=O)c3c(F)cccc32)c1)N1CCN(C(=O)c2cccs2)CC1 [Example 131, 5-Fluoro-1-(3-(4-(thiophene-2-carbonyl)piperazine-1-carbonyl)benzyl)quinazoline-2,4(1H,3H)-dione]	20 nM	17 nM		
O=C(c1ccc(Cn2c(=O)[nH]c(=O)c3ccccc32)cc1)N1CCN(C(=O)C2CCCC2)CC1 [Example 99, 1-(4-(4-(Cyclopentylcarbonyl)piperazine-1-carbonyl)benzyl)quinazoline-2,4(1H,3H)-dione]	> 10000 nM	> 10000 nM		
O=C(c1ccc(Cn2c(=O)[nH]c(=O)c3ccccc32)o1)N1CCN(C(=O)C2CCCC2)CC1 [Example 67, 1-((2-(4-(Cyclopentylcarbonyl)piperazine-1-carbonyl)furan-5-yl)methyl)quinazoline-2,4(1H,3H)-dione]	4820 nM	2050 nM		
COc1cccc2c1c(=O)[nH]c(=O)n2Cc1cccc(C(=O)N2CCN(c3ncccn3)CC2)c1 [Example 203, 5-Methoxy-1-(3-(4-(pyrimidin-2-yl)piperazine-1-carbonyl)benzyl)quinazoline-2,4(1H,3H)-dione]	> 10000 nM	> 10000 nM		
O=C(c1ccsc1)N1CCN(C(=O)c2cccc(Cn3c(=O)[nH]c(=O)c4ccccc43)c2)CC1 [Example 35, 1-(3-(4-(Thiophene-3-carbonyl)piperazine-1-carbonyl)benzyl)quinazoline-2,4(1H,3H)-dione]	238 nM	265 nM		
1-(3-(4-Phenylpiperidine-1-carbonyl)benzyl)quinazoline-2,4(1H,3H)-dione [Example 18]			> 10000 nM	> 10000 nM

Molecule	EC50 ([1]; Homo sapiens, T47D, 24 h)	IC50 [2, 3]	EC50 [1]	IC50 [2, 4]
O=C(c1cc(Cn2c(=O)[nH]c(=O)c3c(F)cccc32)ccc1[N+](=O)[O-])N1CCN(c2ncccn2)CC1 [Example 211, 5-Fluoro-1-(4-nitro-3-(4-(pyrimidin-2-yl)piperazine-1-carbonyl)benzyl)quinazoline-2,4(1H,3H)-dione]	166 nM	145 nM		
O=C(c1cccc(Cn2c(=O)[nH]c(=O)c3ccccc32)c1)N1CCN(S(=O)(=O)C2CCCCC2)CC1 [Example 75, 1-(3-(4-(Cyclohexylsulfonyl)piperazine-1-carbonyl)benzyl)quinazoline-2,4(1H,3H)-dione]	2870 nM	2660 nM		
O=C(c1cccc(Cn2c(=O)[nH]c(=O)c3c(F)cccc32)c1)N1CCN(C(=O)C2CCC2)CC1 [Example 165, 1-(3-(4-(Cyclobutylcarbonyl)piperazine-1-carbonyl)benzyl)-5-fluoroquinazoline-2,4(1H,3H)-dione]	18 nM	49 nM		
O=C(c1cc(Cn2c(=O)[nH]c(=O)c3cc(Cl)ccc32)ccc1F)N1CCN(C(=O)C2CCC2)CC1 [Example 169, 6-Chloro-1-(3-(4-(cyclobutylcarbonyl)piperazine-1-carbonyl)-4-fluorobenzyl)quinazoline-2,4(1H,3H)-dione]	1 nM	3.4 nM		
O=C(c1cccc(Cn2c(=O)[nH]c(=O)c3cccc(O)c32)c1)N1CCN(c2ncccn2)CC1 [Example 230, 8-Hydroxy-1-(3-(4-(pyrimidin-2-yl)piperazine-1-carbonyl)benzyl)quinazoline-2,4(1H,3H)-dione]	3.2 nM	2.6 nM		
O=C(Cc1ccc2ccccc2c1)Nc1cccc(Cn2c(=O)[nH]c(=O)c3ccccc32)c1 [Example 196, 1-(3-(Naphthalen-2-yl)acetamidobenzyl)quinazoline-2,4(1H,3H)-dione]	> 10000 nM	985 nM		
O=C(c1cccc(Cn2c(=O)[nH]c(=O)c3c(F)cccc32)c1)N1CCN(C(=O)C2CCCCC2)CC1 [Example 129, 1-(3-(4-(Cyclohexylcarbonyl)piperazine-1-carbonyl)benzyl)-5-fluoroquinazoline-2,4(1H,3H)-dione]	49 nM	18 nM		
COc1ccc(C(=O)N2CCN(c3ncccn3)CC2)cc1Cn1c(=O)[nH]c(=O)c2c(F)cccc21 [Example 208, 5-Fluoro-1-(6-methoxy-3-(4-(pyrimidin-2-yl)piperazine-1-carbonyl)benzyl)quinazoline-2,4(1H,3H)-dione]	24 nM	37 nM		
O=C(c1cccc(Cn2c(=O)[nH]c(=O)c3ccccc32)c1)N1CCN(c2ccncc2)CC1 [Example 29, 1-(3-(4-(Pyridin-4-yl)piperazine-1-carbonyl)benzyl)quinazoline-2,4(1H,3H)-dione]	> 10000 nM	> 10000 nM		
O=C(c1cc(Cn2c(=O)[nH]c(=O)c3ccccc32)ccc1Cl)N1CCN(C(=O)C2CCCCC2)CC1 [Example 66, 1-(4-Chloro-3-(4-(cyclohexylcarbonyl)piperazine-1-carbonyl)benzyl)quinazoline-2,4(1H,3H)-dione]	604 nM	991 nM		
O=C(c1cccc(Cn2c(=O)[nH]c(=O)c3ccccc32)c1)N1CCN(CC2CCCCC2)CC1 [Example 73, 1-(3-(4-(Cyclohexylmethyl)piperazine-1-carbonyl)benzyl)quinazoline-2,4(1H,3H)-dione]	811 nM	3380 nM		
O=C(c1cccc(Cn2c(=O)[nH]c(=O)c3cc([N+](=O)[O-])ccc32)c1)N1CCN(C(=O)C2CCCC2)CC1 [Example 90, 1-(3-(4-(Cyclopentylcarbonyl)piperazine-1-carbonyl)benzyl)-6-nitroquinazoline-2,4(1H,3H)-dione]	4170 nM	> 10000 nM		
COc1ccc(CNC(=O)c2cc(Cn3c(=O)[nH]c(=O)c4c(F)cccc43)ccc2F)cc1 [Example 200, 5-Fluoro-1-(4-fluoro-3-(4-methoxybenzylcarbamoyl)benzyl)quinazoline-2,4(1H,3H)-dione]	> 10000 nM	> 10000 nM		
Nc1ccc2c(c1)c(=O)[nH]c(=O)n2Cc1cccc(C(=O)N2CCN(c3ncccn3)CC2)c1 [Example 219, 6-Amino-1-(3-(4-(pyrimidin-2-yl)piperazine-1-carbonyl)benzyl)quinazoline-2,4(1H,3H)-dione]	445 nM	481 nM		
O=C(c1ccc(F)c(Cn2c(=O)[nH]c(=O)c3cc(Cl)ccc32)c1)N1CCN(C(=O)C2CCC2)CC1 [Example 167, 6-Chloro-1-(3-(4-(cyclobutylcarbonyl)piperazine-1-carbonyl)-6-fluorobenzyl)quinazoline-2,4(1H,3H)-dione]	5 nM	5.7 nM		
